Assay results taken from patent publication US20110218190A1, “THERAPEUTIC USES OF AMPA RECEPTOR MODULATORS FOR TREATMENT OF MOTOR DYSFUNCTION” (THE REGENTS OF THE UNIVERSITY OF CALIFORNIA, priority 2008, published 2011).

How the values were obtained:
[1] = system: genioglossus (GG) muscle activity in anesthetized freely breathing rats; test: Genioglossus EMG and respiratory rate in anesthetized freely breathing rats; format: in vivo, Sprague-Dawley rats
Procedure: Anesthetized freely breathing rats provide a live animal model for determining effects of AMPA receptor modulators on genioglossus (GG) muscle activity.
Adult Sprague-Dawley rats (˜300 g) were anaesthetized with ketamine (100 mg kg^−1) and xylazine (10 mg kg^−1) injected intraperitoneally. 1-1.5 vol % isoflurane in O2 was inhaled during the experimental stage to provide for stable recordings and continued anesthesia. To measure GG electromyographic activity (EMG), stainless steel wire electrodes were sutured into the muscle. The raw GG EMG signal was rectified filtered and integrated.
Respiratory frequency and tidal volume were measured via pressure transducer attached to the rostral end of a polyethylene cannula that was inserted into the trachea of the anesthetized rat. The animal was freely breathing without the use of any ventilator or other method of respiratory support. These methods were taken in part from those reported in Tan, W., et al. (2008) Nat. Neurosci. 11(5):538-40 and Janczewski, W. A. and Feldman, J. L. (2006) J. Physiol. 570(Pt 2):407-20, incorporated by reference in their entirety.

snoring = test: Treatment of a patient having snoring; format: in vivo; details: about 0.1 to 100 mg/kg body weight
Procedure: A patient is diagnosed as having snoring. This diagnosis is confirmed by the presence of snoring sounds made by the patient during sleep or conditions associated with snoring.
The patient is administered a pharmaceutical formulation of an AMPA receptor modulator. The AMPA receptor modulator is administered to the patient intravenously or orally at a dosage of about 0.1 to 100 mg AMPA receptor modulator/kg body weight as determined by the attending physician. The patient is monitored for reduction or inhibition of snoring and associated symptoms.
The patient is administered a pharmaceutical formulation of an ampakine. The ampakine is administered to the patient intravenously or orally at a dosage of about 0.1 to 100 mg ampakine/kg body weight as determined by the attending physician. The patient is monitored for reduction or inhibition of snoring and associated symptoms.
The patient is administered a pharmaceutical formulation of CX546. CX546 is administered to the patient intravenously or orally at a dosage of about 0.1 to 100 mg CX546/kg body weight as determined by the attending physician. The patient is monitored for reduction or inhibition of snoring and associated symptoms.
The patient is administered a pharmaceutical formulation of aniracetam. Aniracetam is administered to the patient intravenously or orally at a dosage of about 0.1 to 100 mg aniracetam/kg body weight as determined by the attending physician. The patient is monitored for reduction or inhibition of snoring and associated symptoms.
The patient is administered a pharmaceutical formulation of benzothiadiazide. Benzothiadiazide is administered to the patient intravenously or orally at a dosage of about 0.1 to 100 mg benzothiadiazide/kg body weight as determined by the attending physician. The patient is monitored for reduction or inhibition of snoring and associated symptoms.
The patient is administered a pharmaceutical formulation of cyclothiazide. Cyclothiazide is administered to the patient intravenously at a dosage of about 0.1 to 100 mg cyclothiazide/kg body weight as determined by the attending physician. […]

[2] = system: hypoglossal (XII) nerve discharge, neonatal rat medullary slice preparation; test: Integrated hypoglossal (XII) nerve recordings in the in vitro neonatal rat medullary slice preparation; details: for ∫XII nerve discharge amplitude: longer-term (>2 hours) bath application; for long-lasting potentiation of ∫XII nerve amplitude: 1-12 hours after
Procedure: (§1) Experiments were performed on medullary slice preparations from 0-4 day-old neonatal rats that retain functional respiratory networks. Details of the preparation have been previously described. See Funk et al. (1993) J Neurophysiol 70:1497-1515. Briefly, neonatal rats were anesthetized with isoflurane, decerebrated, and the neuraxis isolated by dissection in artificial cerebrospinal fluid (ACSF) [(in mM) 128 NaCl, 3.0 KCl, 1.5 CaCl2, 1.0 mgSO4, 21 NaHCO3, 0.5 Na2HPO4, and 30 D-glucose] equilibrated with 95% 02-5% CO2 at 27-28° C. The neuraxis was sectioned with a vibratome in the transverse plane starting from the rostral medulla to within 150 μm nucleus ambiguous (Smith, J. C. et al., (1991) Science 254(5032):726-729. A single, 700 μm thick transverse slice was then cut, transferred to a 1.5 ml recording chamber and held in place by stainless steel harp. The slice was continuously superfused (≧3 ml/min) by ACSF with extracellular K^+ concentration raised to 9 mM to maintain rhythmic output.
Respiratory motor output was recorded from cut ends of XII nerve roots rectified, filtered and integrated. Peak amplitude was obtained from signals of XII nerve discharge. The activity in individual XII motoneurons was measured via whole-cell voltage-clamp techniques.
Cyclothiazide, CX546, and aniracetam were introduced by bath application to determine the effects of cyclothiazide, CX546, and aniracetam on respiratory activity. Stable respiratory activity was recorded for at least 30 minutes preceding drug application. After removal of the drug, recordings continued for over 12 hours.

obstructive sleep apnea = test: Treatment of a patient having obstructive sleep apnea; format: in vivo; details: about 0.1 to 100 mg/kg body weight
Excerpt: A patient is diagnosed as having obstructive sleep apnea. This diagnosis is confirmed by the presence of obstructive sleep apnea symptoms, including daytime sleepiness, unintentional sleep episodes, unrefreshing sleep, fatigue, or insomnia; awakening with breath holding, gasping, or choking; reports by a bed partner of loud snoring, breathing interruptions, or both in the patient's sleep; sleep study monitoring that documents >5 episodes of hypopnea and apnea per hour. The patient is administered a pharmaceutical formulation of benzothiadiazide. Benzothiadiazide is administered to the patient orally or intravenously at a dosage of about 0.1 to 100 mg benzothiadiazide/kg body weight as determined by the attending physician. The patient is monitored for reduction or inhibition of obstructive sleep apnea and associated symptoms. […] Cyclothiazide is administered to the patient intravenously at a dosage of about 0.1 to 100 mg cyclothiazide/kg body weight as determined by the attending physician. The patient is monitored for reduction or inhibition of obstructive sleep apnea and associated symptoms. […] Aniracetam is administered to the patient intravenously at a dosage of about 0.1 to 100 mg aniracetam/kg body weight as determined by the attending physician. The patient is monitored for reduction or inhibition of obstructive sleep apnea and associated symptoms.

XII motoneurons = test: Whole-cell voltage-clamp of XII motoneurons in the medullary slice; format: cell-based, rat; details: 90 μM for 15 minutes
Procedure: as §1
XII motoneurons were selected according to a hierarchy of criteria. Selection criteria for respiratory motoneurons are described by Funk et al. (1993) J Neurophysiol 70:1497-1515. […]
Respiratory motor output was recorded from cut ends of XII nerve roots rectified, filtered and integrated. […] The activity in individual XII motoneurons was measured via whole-cell voltage-clamp techniques.

[3] = short-duration (1 hour) application, 90 μM, FIG. 2
[4] = injection into XII motor nucleus (1 μL, 25 mM), 30 minutes post-injection, FIG. 7
[5] = local application to the IVth ventricle, FIG. 8A
[6] = micropipette injection into hypoglossal (XII) motor nucleus, 8 minutes after, FIG. 6

O=C(c1ccc2c(c1)OCCO2)N1CCCCC1 [CX546]
average increase of ∫GG activity compared to control ([1]; intravenous injection into femoral vein, 130 μg/kg, FIG. 9A): 15%
respiratory rate ([1]; intravenous injection, 130 μg/kg, FIG. 9B): no long term changes in respiratory rate
duration genioglossus muscle activity remained elevated ([1]; intravenous injection, 130 μg/kg, no diminution of amplitude): more than 2 hours
snoring (snoring): reduces snoring
effect on respiratory rate (frequency) in slice ([2]; 1-hour bath application, 90 μM): increase in ∫XII nerve discharge and respiration rate that subsides over time with drug removal
effect on ∫XII nerve discharge ([2]; 1-hour bath application, 90 μM, FIG. 1B): induces an increase in ∫XII nerve discharge and respiration rate that subsides over time with drug removal
∫XII nerve discharge amplitude ([2]; 20 μM, FIG. 5A): induces a persistent potentiation of ∫XII nerve discharge amplitude
long-lasting potentiation of ∫XII nerve amplitude [2, 3]: but not CX546 causes long-lasting potentiation

COc1ccc(C(=O)N2CCCC2=O)cc1 [aniracetam]
symptoms of obstructive sleep apnea (obstructive sleep apnea): reduces the symptoms of obstructive sleep apnea
snoring (snoring): reduces snoring
∫XII nerve discharge amplitude ([2]; 700 μM, FIG. 5B): induces a persistent potentiation of ∫XII nerve discharge amplitude

NS(=O)(=O)c1cc2c(cc1Cl)NC(C1CC3C=CC1C3)NS2(=O)=O (centres unmarked) [cyclothiazide]
symptoms of obstructive sleep apnea (obstructive sleep apnea): reduces the symptoms of obstructive sleep apnea
XII motoneuron drive currents (XII motoneurons; 1 hour post-treatment, FIG. 4A): potentiates endogenously generated XII motoneuron drive currents
XII motoneuron charge transfer and ∫XII nerve peak amplitude (XII motoneurons; control vs 1 hour post-treatment, FIG. 4B): induces XII motoneuron charge transfer and increase of ∫XII nerve amplitude
average increase of ∫GG activity relative to control [1, 4]: 300%
peak increase of ∫GG activity relative to control [1, 4]: 600%
average increase of ∫GG activity compared to control [1, 5]: 50%
peak increase of ∫GG activity compared to control [1, 5]: 150%
respiratory rate ([1]; local application to the IVth ventricle, FIG. 8B): without affecting respiratory rate
duration of elevation of ∫GG activity ([1]; local application to the IVth ventricle, until the end of the experiment): ~90 min
respiratory frequency [1, 6]: does not affect respiratory frequency
∫GG activity [1, 6]: induces an increase in ∫GG activity
snoring (snoring): reduces snoring
effect on respiratory rate (frequency) in slice ([2]; 1-hour bath application, 90 μM): minor effects on respiratory rate (frequency)
potentiation of hypoglossal (∫XII) nerve discharge amplitude ([2]; 1-hour bath application, 90 μM, FIG. 1A): 2 fold
dose-response of normalized ∫XII nerve amplitude ([2]; 1 hour following a 1 hour application of 3, 9, 30, or 90 μM, FIG. 3): ∫XII nerve amplitude increases as a function of cyclothiazide concentration
persistence of potentiation of ∫XII nerve discharge amplitude ([2]; after 1-hour bath application, 90 μM, drug removed): > 12 h
long-lasting potentiation of ∫XII nerve amplitude [2, 3]: causes long-lasting potentiation of ∫XII nerve amplitude
increase of ∫XII nerve output ([2]; short-duration (1 hour) application, 90 μM, group data 1-12 hours after, FIG. 2): 200-300%
